In the supplement of paper PMC10307832:

What was measured:
Assay in all cases: relative viability (nuclei count vs DMSO), 5 days (fraction); higher = more cells survive
Vorinostat + Bortezomib = compound: O=C(CCCCCCC(=O)Nc1ccccc1)NO [Vorinostat] + CC(C)C[C@H](NC(=O)[C@H](Cc1ccccc1)NC(=O)c1cnccn1)B(O)O [Bortezomib] (partner 0.002 µM)
In short: (§1)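 For relative viability, nuclei counts in treated wells were divided by those in vehicle wells. Lung cancer cell lines had been pin-tool dosed in 1536-well plates the day after seeding and cultured for 5 days, then fixed and stained in one step (final 0.05% Triton X-100, 1% formaldehyde, 1 ug/ml Hoechst) and imaged at 4×. Doses were one drug alone or a fixed anchor-drug dose plus five library-drug doses (not always all listed) in √10 steps, and values are duplicate-plate medians.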

Vorinostat + Decitabine = compound: O=C(CCCCCCC(=O)Nc1ccccc1)NO [Vorinostat] + Nc1ncn([C@H]2C[C@H](O)[C@@H](CO)O2)c(=O)n1 [Decitabine] (partner 2 µM)
In short: as §1

Vorinostat + Alpelisib = compound: O=C(CCCCCCC(=O)Nc1ccccc1)NO [Vorinostat] + Cc1nc(NC(=O)N2CCC[C@H]2C(N)=O)sc1-c1ccnc(C(C)(C)C(F)(F)F)c1 [Alpelisib] (partner 2 µM)
In short: as §1

Vorinostat + Palbociclib = compound: O=C(CCCCCCC(=O)Nc1ccccc1)NO [Vorinostat] + CC(=O)c1c(C)c2cnc(Nc3ccc(N4CCNCC4)cn3)nc2n(C2CCCC2)c1=O [Palbociclib] (partner 0.5 µM)
In short: as §1

Vorinostat + OSI-027 = compound: O=C(CCCCCCC(=O)Nc1ccccc1)NO [Vorinostat] + COc1cccc2cc(-c3nc([C@H]4CC[C@H](C(=O)O)CC4)n4ncnc(N)c34)[nH]c12 [OSI-027] (partner 0.5 µM)
In short: as §1

Row | Cell Line | relative viability (Vorinostat + Bortezomib; first compound 0.253 µM) | relative viability (Vorinostat + Bortezomib; first compound 0.8 µM) | relative viability (Vorinostat + Bortezomib; first compound 2.53 µM) | relative viability (Vorinostat + Bortezomib; first compound 8 µM) | relative viability (Vorinostat + Decitabine; first compound 0.253 µM) | relative viability (Vorinostat + Decitabine; first compound 0.8 µM) | relative viability (Vorinostat + Decitabine; first compound 2.53 µM) | relative viability (Vorinostat + Decitabine; first compound 8 µM) | relative viability (Vorinostat + Alpelisib; first compound 0.253 µM) | relative viability (Vorinostat + Alpelisib; first compound 0.8 µM) | relative viability (Vorinostat + Alpelisib; first compound 2.53 µM) | relative viability (Vorinostat + Alpelisib; first compound 8 µM) | relative viability (Vorinostat + Palbociclib; first compound 0.253 µM) | relative viability (Vorinostat + Palbociclib; first compound 0.8 µM) | relative viability (Vorinostat + Palbociclib; first compound 2.53 µM) | relative viability (Vorinostat + Palbociclib; first compound 8 µM) | relative viability (Vorinostat + OSI-027; first compound 0.253 µM) | relative viability (Vorinostat + OSI-027; first compound 0.8 µM) | relative viability (Vorinostat + OSI-027; first compound 2.53 µM) | relative viability (Vorinostat + OSI-027; first compound 8 µM)
1 | BEN | 0.941 | 0.479 | 0.201 | 0.0496 | 0.838 | 0.55 | 0.236 | 0.143 | 1.07 | 0.457 | 0.154 | 0.0775 | 0.433 | 0.455 | 0.301 | 0.155 | 0.287 | 0.24 | 0.0754 | 0.0473
2 | HCC-15 | 1.15 | 0.973 | 0.518 | 0.13 | 0.69 | 0.521 | 0.2 | 0.0924 | 0.93 | 0.864 | 0.468 | 0.0971 | 0.748 | 0.688 | 0.281 | 0.101 | 0.698 | 0.487 | 0.269 | 0.0848
3 | NCI-H1395 |  |  |  |  | 0.857 | 0.69 | 0.565 | 0.343 | 1.48 | 1.09 | 0.57 | 0.373 | 0.714 | 0.688 | 0.537 | 0.309 | 0.647 | 0.597 | 0.418 | 0.352
4 | NCI-H2009 | 1.32 | 0.567 | 0.233 | 0.126 | 0.416 | 0.354 | 0.273 | 0.0862 | 1.24 | 1 | 0.633 | 0.187 | 0.267 | 0.25 | 0.171 | 0.0986 | 0.793 | 0.795 | 0.254 | 0.0901
5 | UMC-11 | 0.672 | 0.56 | 0.0652 | 0.0503 | 0.613 | 0.402 | 0.179 | 0.134 | 1.02 | 0.852 | 0.221 | 0.0659 | 0.356 | 0.233 | 0.179 | 0.116 | 0.441 | 0.263 | 0.135 | 0.0952
6 | CAL-12T | 1.22 | 0.984 | 0.406 | 0.148 |  |  |  |  | 1.18 | 1.07 | 0.462 | 0.0781 | 0.61 | 0.386 | 0.182 | 0.0984 | 0.814 | 0.746 | 0.292 | 0.0987
7 | NCI-H596 | 0.942 | 0.693 | 0.663 | 0.258 | 1.07 | 0.902 | 0.68 | 0.36 | 0.871 | 0.482 | 0.278 | 0.248 |  |  |  |  | 0.843 | 0.36 | 0.637 | 0.293
8 | IA-LM | 1.03 | 0.547 | 0.161 | 0.0471 |  |  |  |  | 0.769 | 0.512 | 0.224 | 0.0622 |  |  |  |  |  |  |  | 
9 | NCI-H2170 |  |  |  |  | 0.415 | 0.407 | 0.321 | 0.129 | 0.823 | 0.69 | 0.235 | 0.141 | 0.407 | 0.345 | 0.253 | 0.102 | 0.78 | 0.759 | 0.569 | 0.144
10 | SK-MES-1 |  |  |  |  | 0.362 | 0.364 | 0.212 | 0.163 | 0.948 | 0.904 | 0.437 | 0.144 | 0.377 | 0.453 | 0.418 | 0.222 | 0.72 | 0.664 | 0.199 | 0.149
11 | NCI-H1563 | 0.977 | 0.778 | 0.579 | 0.503 |  |  |  |  | 0.93 | 0.8 | 0.642 | 0.555 |  |  |  |  | 0.787 | 0.692 | 0.577 | 0.549
12 | NCI-H1944 |  |  |  |  | 0.397 | 0.364 | 0.259 | 0.141 | 0.849 | 0.566 | 0.409 | 0.151 | 0.31 | 0.272 | 0.176 | 0.118 | 0.413 | 0.287 | 0.226 | 0.165
13 | NCI-H1793 |  |  |  |  | 0.596 | 0.504 | 0.38 | 0.165 | 0.905 | 0.96 | 0.519 | 0.251 | 0.283 | 0.279 | 0.213 | 0.159 | 0.328 | 0.32 | 0.302 | 0.151
14 | SW 900 |  |  |  |  | 0.34 | 0.351 | 0.23 | 0.159 |  |  |  |  | 0.513 | 0.526 | 0.219 | 0.136 | 0.49 | 0.472 | 0.227 | 0.0866
15 | NCI-H358 |  |  |  |  | 0.202 | 0.196 | 0.105 | 0.091 | 1.05 | 0.939 | 0.226 | 0.177 | 0.139 | 0.167 | 0.101 | 0.0793 | 1.14 | 0.793 | 0.189 | 0.0874
16 | NCI-H2228 | 0.979 | 0.389 | 0.188 | 0.097 |  |  |  |  | 0.945 | 0.461 | 0.184 | 0.113 | 0.713 | 0.431 | 0.22 | 0.0631 | 0.767 | 0.452 | 0.203 | 0.0986
